Results reported in US20150342893A1 (SIGMOID PHARMA LIMITED, priority 2014, published 2015).

How the values were obtained:
HT29 cells [1] = test: MTT cell proliferation assay; assay type: cell-based; details: Homo sapiens, HT-29, 72 hrs, tested at 20, 30, 50 and 100 μM, read-out: IC50 dose (dose required to reduce cell proliferation by 50% compared to medium)
Protocol: HT29 is a COX-2 positive human colorectal adenocarcinoma cell line and is in particular a model for adenocarcinoma, especially COX-2 positive adenocarcinoma. […] The cells were grown in a humidified atmosphere containing 5% CO2. Cell proliferation was measured using the VybrantMTT assay kit according to the manufacturer's guidelines. HT29 cells (10,000 cells) cells were plated in 100 μl of complete McCoy's 5A media in 96-well tissue culture dishes. […] In the case of celecoxib dissolved in DMSO, the celecoxib was dissolved overnight in DMSO before treatment. Two control groups were employed, one which involved no treatment (referred to as media) and the other which involved treatment with DMSO alone. […] The absorbance (A) was determined in a BioRad 680 microplate reader (BioRad, USA) at 550 nm.

[2] = cited from earlier work
[3] = at 20° C.; cited from earlier work
[4] = Solubilisation measurements of celecoxib in vehicles (oils, surfactants, co-solvents); assay type: physicochemical
Protocol: Solubilisation studies were performed using a wide range of vehicles consisting of oils, surfactants and co-solvents. The vehicles used were Kolliphor® HS 15, Transcutol® P, Kolliphor® EL, Miglyol® 810N, Tween® 20 and Capryol® 90.
Celecoxib was added to measured quantities of the vehicles (excipients) in glass vials. These mixtures were stirred at room temperature on a magnetic stirrer; as an exception, the solubilisation measurements were performed at elevated temperatures in respect of vehicles which were solid at room temperature.

HT29 cells [5] = test: Annexin V-PE / 7-AAD cell viability and apoptosis assay by flow cytometry; assay type: cell-based, human
Protocol: HT29 is a COX-2 positive human colorectal adenocarcinoma cell line and is in particular a model for adenocarcinoma, especially COX-2 positive adenocarcinoma. The HT29 cell line was grown in McCoy's 5A modified medium supplemented with 1.5 mM L-glutamine, 10% FBS (fetal bovine serum) and 1% penicillin/streptomycin. The cells were grown in a humidified atmosphere containing 5% CO2.
Two control groups were employed, one which involved no treatment (referred to as media) and the other which involved treatment with DMSO alone. Cell viability and the onset of apoptosis was monitored using an Annexin-PE Apoptosis Detection Kit which contains recombinant Annexin V-fluorochrome phycoerythrin (PE) conjugate and the vital dye 7-amino-actinomycin (7-AAD) followed by flow cytometry on a FACSCalibur system using CellQest software (BD Biosciences, USA) . Data for at least 10,000 cells were collected for each analysis made and two-dimensional plots of 7-AAD versus PE were generated.

[6] = Precipitation of drug during minibead manufacture (surfactant phase in contact with gelatin phase); assay type: physicochemical; details: inhibitor added to celecoxib minibead formulation
Protocol: Minibeads containing celecoxib were prepared via a manual drop in oil method. The minibeads were manufactured by combining the surfactant phase (drug dissolved in vehicles) with a gelatin phase (mixture of gelatin, water, sorbitol and SDS) and mixing at approximately 60° C. Droplets of the mixture were then allowed to fall into a bath of cooling/hardening oil (Miglyol® 810N) at approximately 10° C. As the mixture droplets fall in air, coacervation occurs to form a coacervate suspension in which droplets of the surfactant phase are surrounded by a layer of gelatine (multiple coacervates exist within a single minibead). The dropping of the minibead into a cooling/hardening bath allows the minibeads to harden before being recovered for drying. […] A range of oils was investigated (olive oil, mineral oil and other medium chain triglycerides) for use as the cooling/hardening oil in the production of minibeads. […] The minibeads were then air dried for 24 hr (over this time the water in the formulation evaporated). In some of the formulations other components were added to the gelatin phase to prevent precipitation of drug during manufacturing and also to help maintain the minibead structure.
Similar formulations were produced in which the drug loading was increased to 9-10% w/w, however precipitation was evident for these formulations on contact of the surfactant phase with the gelatin phase. […]

| SMILES | IC50 (HT29 cells [1]) [µM] | Log P [2] | aqueous solubility [3] [µg/mL] | solubility of celecoxib in Capryol 90 ([4]; vehicle Capryol 90, range between transparent and cloudy) [mg/g] | solubility of celecoxib in 2-(2-ethoxyethoxy)ethanol (Transcutol P) ([4]; vehicle Transcutol P) [mg/g] | maximum solubility of celecoxib in ethanol ([4]; vehicle ethanol) [mg/g] | % of cells that died by necrosis (HT29 cells [5]; 50 μM, 72 h) [%] | combined % of cells that died via apoptosis (late and early apoptosis) (HT29 cells [5]; 50 μM, 72 h) [%] | viability at 50 µM (HT29 cells [5]; Homo sapiens, HT-29, 72 h, n=6, read-out: % viable cells) [%] | Effect (potential precipitation inhibitor) [6] |
| --- | --- | --- | --- | --- | --- | --- | --- | --- | --- | --- |
| Cc1ccc(-c2cc(C(F)(F)F)nn2-c2ccc(S(N)(=O)=O)cc2)cc1 [Celecoxib, celecoxib] | > 100 | 3.5 | 3 to 7 | 58 to 64 | 345 to 390 | 100 to 125 | 13.96±2.48 | 17.02±1.63 | 69 ± 2.71 |  |
| CC(=O)Oc1c(C)c(C)c2c(c1C)CCC(C)(CCC[C@H](C)CCC[C@H](C)CCCC(C)C)O2 (stereo partly shown) [Vitamin E Acetate, vitamin E acetate] |  |  |  |  |  |  |  |  |  | Effective precipitation inhibitor but negative |
